Assay results taken from patent US10538554B2, “Peptides and uses therefor as antiviral agents” (priority 2015, dated 2020).
Like-named read-outs stand apart in the source and are kept apart here. Bridge positions count the residues as written; N and C are the ends. Square brackets hold non-standard residues; d marks the D form. Peptide text beside a SMILES is read from it.

Experiments:
H3N2 A/HK/8/1968 = settings: A/HK/8/1968, 48 h
H3N8 A/Miami/2/63 = settings: A/Miami/2/63, 48 h
H9N2 A/Iran/16/2000 = settings: 48 h
[1] = test system: H1N1 A1/Malaysia/302/1954; settings: A1/Malaysia/302/1954, 48 h
H1N1 A/NY/18/2009 = settings: A/NY/18/2009, 48 h, 10 μM
H1N1 A/PR/8/1934 = settings: A/PR/8/1934, 48 h, 10 μM

SMILES | % inhibition H3N2 (H3N2 A/HK/8/1968; 50 μM) [%] | % inhibition H3N8 (H3N8 A/Miami/2/63; 50 μM) [%] | % inhibition H9N2 (H9N2 A/Iran/16/2000; 50 μM) [%] | % inhibition H1N1 ([1]; 50 μM) [%] | % Inhibition Pdm 2009 (H1N1 A/NY/18/2009) [%] | % inhibition H3N8 (H3N8 A/Miami/2/63; 10 μM) [%] | % inhibition H9N2 (H9N2 A/Iran/16/2000; 10 μM) [%] | % inhibition H1N1 ([1]; 10 μM) [%] | % inhibition H3N2 (H3N2 A/HK/8/1968; 10 μM) [%] | % Inhibition PR/8 (H1N1 A/PR/8/1934) [%]
CC[C@@H](C)[C@H]1NC(=O)[C@@H](Cc2ccccc2)NC(=O)[C@@H](CCCNC(=N)N)NC(=O)[C@@H](C(C)C)NC(=O)[C@@H](Cc2c[nH]c3ccccc23)NC(=O)[C@@H]([C@H](C)O)NC(=O)[C@H](NC(=O)[C@H](CCCCN)NC(=O)[C@H](CCCCN)NC(=O)[C@H](CCCNC(=N)N)NC(=O)[C@@H](N)CCCNC(=N)N)CSSC[C@H](C(=O)O)NC(=O)[C@@H](CC(N)=O)NC1=O [PSP III B18, H-RRKKctwvrfinc-OH] (H-RRKK[dC][dT][dW][dV][dR][dF][dI][dN][dC]-OH; disulfide 5-13) | 100 | 100 | 88 | 90 | – | – | – | – | – | –
CC[C@@H](C)[C@H]1NC(=O)[C@@H](Cc2ccccc2)NC(=O)[C@@H](CCCNC(=N)N)NC(=O)[C@@H](Cc2c[nH]c3ccccc23)NC(=O)[C@@H](Cc2c[nH]c3ccccc23)NC(=O)[C@@H]([C@H](C)O)NC(=O)[C@H](NC(=O)[C@H](CCCCN)NC(=O)[C@H](CCCCN)NC(=O)[C@H](CCCNC(=N)N)NC(=O)[C@@H](N)CCCNC(=N)N)CSSC[C@H](C(=O)O)NC(=O)[C@@H](CC(N)=O)NC1=O [PSP III B19, H-RRKKctwwrfinc-OH] (H-RRKK[dC][dT][dW][dW][dR][dF][dI][dN][dC]-OH; disulfide 5-13) | 100 | 100 | 97 | 94 | – | – | – | – | – | –
CC[C@@H](C)[C@H]1NC(=O)[C@@H](Cc2ccccc2)NC(=O)[C@@H](CCCNC(=N)N)NC(=O)[C@@H](Cc2ccc(O)cc2)NC(=O)[C@@H](Cc2c[nH]c3ccccc23)NC(=O)[C@@H]([C@H](C)O)NC(=O)[C@H](NC(=O)[C@H](CCCCN)NC(=O)[C@H](CCCCN)NC(=O)[C@H](CCCNC(=N)N)NC(=O)[C@@H](N)CCCNC(=N)N)CSSC[C@H](C(=O)O)NC(=O)[C@@H](CC(N)=O)NC1=O [PSP III B20, H-RRKKctwyrfinc-OH] (H-RRKK[dC][dT][dW][dY][dR][dF][dI][dN][dC]-OH; disulfide 5-13) | 100 | 96 | 86 | 83 | – | – | – | – | – | –
CC[C@@H](C)[C@H]1NC(=O)[C@@H](Cc2ccccc2)NC(=O)[C@@H](C)NC(=O)[C@@H](Cc2ccccc2)NC(=O)[C@@H](Cc2c[nH]c3ccccc23)NC(=O)[C@@H]([C@H](C)O)NC(=O)[C@H](NC(=O)[C@H](CCCCN)NC(=O)[C@H](CCCCN)NC(=O)[C@H](CCCNC(=N)N)NC(=O)[C@@H](N)CCCNC(=N)N)CSSC[C@H](C(=O)O)NC(=O)[C@@H](CC(N)=O)NC1=O [PSP IV A1, H-RRKKctwfafinc-OH] (H-RRKK[dC][dT][dW][dF][dA][dF][dI][dN][dC]-OH; disulfide 5-13) | – | – | – | – | 78 | 83 | 77 | 78 | – | –
CC[C@@H](C)[C@H]1NC(=O)[C@@H](Cc2ccccc2)NC(=O)[C@@H](CS)NC(=O)[C@@H](Cc2ccccc2)NC(=O)[C@@H](Cc2c[nH]c3ccccc23)NC(=O)[C@@H]([C@H](C)O)NC(=O)[C@H](NC(=O)[C@H](CCCCN)NC(=O)[C@H](CCCCN)NC(=O)[C@H](CCCNC(=N)N)NC(=O)[C@@H](N)CCCNC(=N)N)CSSC[C@H](C(=O)O)NC(=O)[C@@H](CC(N)=O)NC1=O [PSP IV A2, H-RRKKctwfcfinc-OH] (H-RRKK[dC][dT][dW][dF][dC][dF][dI][dN][dC]-OH; disulfide 5-13) | – | – | – | – | 68 | 76 | 64 | 60 | 82 | 68
CC[C@@H](C)[C@H]1NC(=O)[C@@H](Cc2ccccc2)NC(=O)[C@@H](CC(=O)O)NC(=O)[C@@H](Cc2ccccc2)NC(=O)[C@@H](Cc2c[nH]c3ccccc23)NC(=O)[C@@H]([C@H](C)O)NC(=O)[C@H](NC(=O)[C@H](CCCCN)NC(=O)[C@H](CCCCN)NC(=O)[C@H](CCCNC(=N)N)NC(=O)[C@@H](N)CCCNC(=N)N)CSSC[C@H](C(=O)O)NC(=O)[C@@H](CC(N)=O)NC1=O [PSP IV A3, H-RRKKctwfdfinc-OH] (H-RRKK[dC][dT][dW][dF][dD][dF][dI][dN][dC]-OH; disulfide 5-13) | – | – | – | – | 72 | 59 | 30 | 49 | – | –
CC[C@@H](C)[C@H]1NC(=O)[C@@H](Cc2ccccc2)NC(=O)[C@@H](CCC(=O)O)NC(=O)[C@@H](Cc2ccccc2)NC(=O)[C@@H](Cc2c[nH]c3ccccc23)NC(=O)[C@@H]([C@H](C)O)NC(=O)[C@H](NC(=O)[C@H](CCCCN)NC(=O)[C@H](CCCCN)NC(=O)[C@H](CCCNC(=N)N)NC(=O)[C@@H](N)CCCNC(=N)N)CSSC[C@H](C(=O)O)NC(=O)[C@@H](CC(N)=O)NC1=O [PSP IV A4, H-RRKKctwfefinc-OH] (H-RRKK[dC][dT][dW][dF][dE][dF][dI][dN][dC]-OH; disulfide 5-13) | – | – | – | – | 45 | 72 | 53 | 62 | – | –
CC[C@@H](C)[C@H]1NC(=O)[C@@H](Cc2ccccc2)NC(=O)CNC(=O)[C@@H](Cc2ccccc2)NC(=O)[C@@H](Cc2c[nH]c3ccccc23)NC(=O)[C@@H]([C@H](C)O)NC(=O)[C@H](NC(=O)[C@H](CCCCN)NC(=O)[C@H](CCCCN)NC(=O)[C@H](CCCNC(=N)N)NC(=O)[C@@H](N)CCCNC(=N)N)CSSC[C@H](C(=O)O)NC(=O)[C@@H](CC(N)=O)NC1=O [PSP IV A6, H-RRKKctwfGfinc-OH] (H-RRKK[dC][dT][dW][dF]G[dF][dI][dN][dC]-OH; disulfide 5-13) | – | – | – | – | 47 | 57 | 35 | 59 | – | –
CC[C@@H](C)[C@H]1NC(=O)[C@@H](Cc2ccccc2)NC(=O)[C@@H](Cc2c[nH]cn2)NC(=O)[C@@H](Cc2ccccc2)NC(=O)[C@@H](Cc2c[nH]c3ccccc23)NC(=O)[C@@H]([C@H](C)O)NC(=O)[C@H](NC(=O)[C@H](CCCCN)NC(=O)[C@H](CCCCN)NC(=O)[C@H](CCCNC(=N)N)NC(=O)[C@@H](N)CCCNC(=N)N)CSSC[C@H](C(=O)O)NC(=O)[C@@H](CC(N)=O)NC1=O [PSP IV A7, H-RRKKctwfhfinc-OH] (H-RRKK[dC][dT][dW][dF][dH][dF][dI][dN][dC]-OH; disulfide 5-13) | – | – | – | – | 71 | 79 | 65 | 68 | 80 | 73
CC[C@@H](C)[C@H]1NC(=O)[C@@H](Cc2ccccc2)NC(=O)[C@@H](CC(N)=O)NC(=O)[C@@H](Cc2ccccc2)NC(=O)[C@@H](Cc2c[nH]c3ccccc23)NC(=O)[C@@H]([C@H](C)O)NC(=O)[C@H](NC(=O)[C@H](CCCCN)NC(=O)[C@H](CCCCN)NC(=O)[C@H](CCCNC(=N)N)NC(=O)[C@@H](N)CCCNC(=N)N)CSSC[C@H](C(=O)O)NC(=O)[C@@H](CC(N)=O)NC1=O [PSP IV A12, H-RRKKctwfnfinc-OH] (H-RRKK[dC][dT][dW][dF][dN][dF][dI][dN][dC]-OH; disulfide 5-13) | – | – | – | – | 60 | 56 | 48 | 67 | – | –
